From paper PMC12196235, “Enhancing the Pharmacological Properties of Triterpenes Through Acetylation: An Anticancer and Antioxidant Perspective” (Molecules, 2025)
Where “and” joins values, the source holds several entries; their conditions need not be identical. Identical values can stand only once. Like-named read-outs stand apart in the source and are kept apart here.

Experiments:
[1] = tested on: KB (human oral squamous carcinoma); experiment: MTT assay, KB; assay type: cell-based; details: for IC50: Homo sapiens, MTT assay, KB; for Selectivity index (SI), KB: IC50 HDF / IC50 KB
Procedure: (§1) All the cell lines and mediums were obtained from the American Type Culture Collection (ATCC) supplied by LGC-Standards (Lomianki, Poland). Human cancer cell lines were cultured as follows: HeLa (human cervix carcinoma) and KB (human oral squamous carcinoma) lines were cultured in DMEM (Dulbecco’s Modified Eagle’s Medium); MCF-7 (human breast carcinoma) and A-549 (human lung carcinoma) were cultured in RPMI 1640 medium; PC-3 (human prostate carcinoma) was cultured in F-12K medium; SKOV-3 (human ovarian cystadenocarcinoma) was cultured in McCoy’s modified medium; HDF (human normal dermal fibroblasts) was cultured in Fibroblast Basal Medium. Each medium was supplemented with 10% fetal bovine serum, 1% L- glutamine and 1% penicillin/streptomycin solution. The cell lines were kept in an incubator at 37 °C.
(§2) All the tested cell lines (HeLa, KB, MCF-7, A-549, PC-3, SKOV-3 and HDF) were subjected to MTT assay. In short, this assay is based on the reaction between mitochondria enzymes (dehydrogenases) of tested cell lines and 3-(4,5-dimethylthiazol-2-yl)-2,5-diphenyltetrazolium bromide (MTT). The final product of this reaction gives violet formazan crystals. The number of live cells is proportional to the amount of formazan and is represented by the violet dye reagent. The details of the experiments are given in [19].

[2] = tested on: Hep-G2 (human hepatocellular carcinoma); details: read-out: anticancer IC50 (Hep-G2), cited from earlier work
CUPRAC antioxidant assay = details: calculated from Trolox standard curve
Procedure: (§3) The results are presented as % inhibition of the copper(II) ions and Trolox equivalent calculated from the standard curve (Figure 9) and as % inhibition of the DPPH radical and Trolox equivalent, calculated from the standard curve (Figure 10).
(§4) The CUPRAC reagent (7.5 mM ethanolic 96% neocuproine solution, 10 mM CuCl2 × H2O solution and an ammonium acetate buffer of pH 7.0) and DPPH reagent (2,2-diphenyl-1-picrylhydrazyl 0.2 mM solution) were applied.
(§5) The CUPRAC method measures the reducing power of a sample by quantifying its ability to convert the Cu-neocuproine reagent complex to the Cu(I) form. In contrast, the DPPH assay relies on the ability of an antioxidant to donate a hydrogen atom or an electron to the stable DPPH radical, resulting in its reduction and subsequent color change. The results are presented as % inhibition of the copper(II) ions and Trolox equivalent calculated from the standard curve (Figure 9) and as % inhibition of the DPPH radical and Trolox equivalent, calculated from the standard curve (Figure 10). The spectroscopic detection in CUPRAC and DPPH assays was conducted with Synergy H1 Multi-Mode Microplate Reader (BioTek Instruments, Inc., Winooski, VT, USA). The details of the experiments are given in [102].

[3] = tested on: MCF-7 (human breast carcinoma); experiment: MTT assay, MCF-7; assay type: cell-based; details: for IC50: Homo sapiens, MCF7, MTT assay, MCF-7, read-out: IC50 (±SD), MCF-7; for Selectivity index (SI), MCF-7: IC50 HDF / IC50 MCF-7
Procedure: as §1, §2

[4] = tested on: A-549 (human lung carcinoma); experiment: MTT assay, A-549; assay type: cell-based; details: for IC50: Homo sapiens, A549, MTT assay, A-549, read-out: IC50 (±SD), A-549; for Selectivity index (SI), A-549: IC50 HDF / IC50 A-549
Procedure: as §1, §2

[5] = tested on: SMMC-7721 (human hepatocarcinoma); design: method as in PMID 35897914; details: ref 27; read-out: anticancer IC50 (SMMC-7721); cited from earlier work
[6] = tested on: HT-29 (human colorectal adenocarcinoma); details: cited from earlier work
[7] = tested on: CCRF-CEM, CEM (human T lymphoblastic leukemia); details: ref 26; read-out: anticancer IC50 (CCRF-CEM, CEM); cited from earlier work
[8] = tested on: HDF (human dermal fibroblasts); experiment: MTT assay, normal HDF; assay type: cell-based; details: Homo sapiens, Fibroblast, read-out: IC50 (±SD), HDF
Procedure: as §1, §2

[9] = tested on: SKOV-3 (human ovarian carcinoma); experiment: MTT assay, SKOV-3; assay type: cell-based; details: for IC50: Homo sapiens, SK-OV-3, MTT assay, SKOV-3, read-out: IC50 (±SD), SKOV-3; for Selectivity index (SI), SKOV-3: IC50 HDF / IC50 SKOV-3
Procedure: as §1, §2

[10] = tested on: PC-3 (human prostate carcinoma); experiment: MTT assay, PC-3; assay type: cell-based; details: for IC50: Homo sapiens, MTT assay, PC-3, read-out: IC50 (±SD), PC-3; for Selectivity index (SI), PC-3: IC50 HDF / IC50 PC-3
Procedure: as §1, §2

[11] = tested on: A-549 (human lung carcinoma); details: cell line printed as A-459; read-out: anticancer IC50 (A-459); cited from earlier work
[12] = tested on: HeLa (human cervical epithelioid carcinoma); experiment: MTT assay, HeLa; assay type: cell-based; details: for IC50: Homo sapiens, MTT assay, HeLa, read-out: IC50 (±SD), HeLa
Procedure: as §1, §2

[13] = tested on: HeLa, KB, MCF-7, A-549, PC-3 and SKOV-3; experiment: MTT assay, summary over the cancer cell lines; assay type: cell-based, human
Procedure: as §1, §2

DPPH antioxidant assay = details: calculated from Trolox standard curve
Procedure: as §3, §4, §5

[14] = tested on: HCT-116 (human colorectal carcinoma); details: ref 38; read-out: anticancer IC50 (HCT-116); cited from earlier work
[15] = tested on: SW-480 (human colon adenocarcinoma); design: method as in PMID 28981110; details: ref 38; read-out: anticancer IC50 (SW-480); cited from earlier work
HCV (Hepatitis C virus) = tested on: HCV (Hepatitis C virus); design: method as in PMID 26102077; details: ref 32; read-out: antiviral EC50 (HCV); cited from earlier work
[16] = tested on: NOZ (human gall bladder carcinoma); design: method as in PMID 31915810; details: ref 39; read-out: anticancer IC50 (NOZ); cited from earlier work
[17] = tested on: A-2780 (human ovarian carcinoma); design: method as in PMID 31277238; details: ref 40; read-out: anticancer IC50 (A-2780); cited from earlier work

| SMILES | IC50 [1] | Selectivity index (SI), KB [1] | Trolox Equivalent, CUPRAC Assay (CUPRAC antioxidant assay) | IC50 [3] | Selectivity index (SI), MCF-7 [3] | IC50 [4] | Selectivity index (SI), A-549 [4] | IC50 [7] | IC50 [8] | IC50 [9] | Selectivity index (SI), SKOV-3 [9] | IC50 [10] | Selectivity index (SI), PC-3 [10] | IC50 [12] | Trolox Equivalent, DPPH Assay (DPPH antioxidant assay) | further results |
| --- | --- | --- | --- | --- | --- | --- | --- | --- | --- | --- | --- | --- | --- | --- | --- | --- |
| CC1(C)CC[C@]2(CO)CC[C@]3(C)C(=CC[C@@H]4[C@@]5(C)CC[C@H](O)C(C)(C)[C@@H]5CC[C@]43C)[C@@H]2C1 [2a, erythrodiol] | 66 µM | 0.42 | 0.09414 mg/mL and 0.09414 ± 0.0095 mg/mL | 65.5 µM | 0.43 | 63.7 µM | 0.44 | 250 µM | 28 µM | 18.3 µM | 1.53 | 21.1 µM | 1.32 | 54.3 µM | 0.02092 mg/mL and 0.02092 ± 0.000866 mg/mL | IC50 ([2]; ref 24): 27.3 µM; IC50 ([2]; ref 27): 87.7 µM; IC50 [5]: 65 µM; EC50 ([6]; ref 25, read-out: anticancer EC50 (HT-29)): 48.8 µM; IC50 [11]: 63 µM; times less active than oleanolic acid 1a ([13]; HeLa, KB, MCF-7 and A-459 cell lines): 4.4–7.2 times |
| C=C(C)[C@@H]1CC[C@]2(C(=O)O)CC[C@]3(C)[C@H](CC[C@@H]4[C@@]5(C)CC[C@H](O)C(C)(C)[C@@H]5CC[C@]43C)[C@@H]12 [4a, betulinic acid] | 35.2 µM | 0.56 | 0.07632 ± 0.00727 mg/mL | 27.9 µM | 0.71 | 26.2 µM | 0.76 | 30 µM | 19.9 µM | 9.52 µM | 2.09 | 10.6 µM | 1.88 | 27.5 µM | 0.01526 ± 0.000632 mg/mL | IC50 [14]: 178 µM; IC50 [15]: 58 µM; IC50 ([6]; ref 38, read-out: anticancer IC50 (HT-29)): 125 µM; EC50 (HCV (Hepatitis C virus)): 11.2 µM; IC50 [16]: 30 µM; IC50 [17]: 44.5 µM; Selectivity index (SI), HeLa ([12]; IC50 HDF / IC50 HeLa): 0.72; cytotoxic activity class ([13]; classification by IC50 (good ≤ 10 μM, moderate 10–30 μM, ref 83)): high or moderately high activity |
